Measured values published in US20060281789A1, “Protein kinase inhibitors” (KYOWA HAKKO KOGYO CO., LTD, priority 2003, published 2006).
Where a name gives a salt, the structure may show the parent alone.

What was measured:
MV-4-11 = experiment: Cytostatic activity on human acute myeloid leukemia cell line MV-4-11 (WST-1); type: cell-based; conditions: MV4-11, 3.16 μmol/L, 72 hours, read-out: MV-4-11 (%) cytostatic rate
Method: (§1) The cytostatic rates of a test compound on human acute myeloid leukemia cell lines MV-4-11 and ML-1, and human chronic myeloid leukemia cell line K562 were determined in the following manner.
(§2) Each cell was cultured using Roswell Park Memorial Institute's Medium (RPMI) 1640 (Gibco, Catalog No. 11875-093) containing 10% fetal bovine serum (Gibco, Catalogue No. 10437-028) and penicillin/streptomycin (1:1) (Gibco, Catalogue No. 15140-122). Each 80 μL of the MV-4-11 cell having a concentration of 7.5×10^4 cells/mL (or the ML-1 cell or K562 cell having a concentration of 2.5×10^4 cells/mL) was inoculated to wells of a TC MICROWELL 96U plate (Nalge Nunc International, Catalogue No. 163320) and was cultured in a 5% carbon dioxide gas incubator at 37° C. for 4 hours. As a blank, only RPMI medium (80 μL) was added to a well. Each 20 μL of a solution of the test compound in dimethyl sulfoxide (DMSO) which was prepared to make the final concentration to 3.16 μmol/L or 10 μmol/L, was added to the MV-4-11 cell, ML-1 cell and K562 cell, respectively. Each 20 μL of DMSO was added to the control well and the blank well to a final concentration of 0.1%. After adding the test compound, the cells were incubated in a 5% carbon dioxide gas incubator at 37° C. for 72 hours. After adding 20 μL of WST-1 reagent {4-[3-(4-iodophenyl)-2-(4-nitrophenyl)-2H-5-tetrazolio]-1,3-benzene disulfonate sodium salt) (Roche Diagnostics K.K., Catalogue No. 1644807) diluted to 50% with RPMI medium, the cells were further incubated at 37° C. for 2 hours. Then, the absorbances at 450 nm (reference wavelength: 690 nm) were determined with a microplate spectrophotometer SPECTRA max 340PC (Molecular Devices Corporation). The relative growth (%) of a well to which the test compound had been added was determined while setting the absorbance of a well to which not the test compound but DMSO alone had been added (control) at 100% and that of a well containing RPMI medium alone at 0%. The cytostatic rate (%) of the test compound was determined by subtracting the calculated relative growth from 100.

K562 = experiment: Cytostatic activity on human chronic myeloid leukemia cell line K562 (WST-1); type: cell-based; conditions: 10 μmol/L, 72 hours, read-out: K562 (%) cytostatic rate
Method: as §1, §2

ML-1 = experiment: Cytostatic activity on human acute myeloid leukemia cell line ML-1 (WST-1); type: cell-based; conditions: ML1, 3.16 μmol/L, 72 hours, read-out: ML-1 (%) cytostatic rate
Method: as §1, §2

human Flt-3 = target: T1, human Flt-3 (Homo sapiens, UniProt P36888); experiment: Inhibitory activity on Flt-3 (GST-fused kinase, time-resolved fluoroimmunoassay); type: biochemical; conditions: tested compound 10 μmol/L, ATP 10 μmol/L, sixty minutes
T1 construct: fused to the N-terminus of the intracellular domain (583-953 amino acids) thereof; made in house; host or cells: insect cells (baculovirus)
T1 sequence (P36888 583-953): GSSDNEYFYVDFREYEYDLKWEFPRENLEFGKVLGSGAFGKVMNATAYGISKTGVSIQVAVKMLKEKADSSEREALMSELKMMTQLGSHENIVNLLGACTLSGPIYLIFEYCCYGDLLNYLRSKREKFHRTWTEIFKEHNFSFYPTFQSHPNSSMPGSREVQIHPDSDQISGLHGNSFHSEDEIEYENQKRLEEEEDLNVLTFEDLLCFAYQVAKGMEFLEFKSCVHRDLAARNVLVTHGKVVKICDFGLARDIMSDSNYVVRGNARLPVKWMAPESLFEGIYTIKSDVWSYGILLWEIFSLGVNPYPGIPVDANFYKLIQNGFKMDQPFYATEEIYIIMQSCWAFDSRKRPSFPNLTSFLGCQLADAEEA
Method: Flt-3 inhibitory activities were determined in the following manner.
Flt-3 was prepared by allowing baculovirus to infect insect cells, which baculovirus expresses a protein comprising human Flt-3 with […]. […] Separately was prepared a solution containing, at final concentrations, GST-fused Flt-3 (100 μg/L), Tris-Cl (pH 7.5) (20 mmol/L), β-glycerophosphate (5 mmol/L), dithiothreitol (DTT) (1 mmol/L), Na3VO4 (0.1 mmol/L), MgCl2 (10 mmol/L), MnCl2 (10 mmol/L), ATP (10 μmol/L), bovine serum albumin (BSA) (0.1%), DMSO (0.1%), and a tested compound (10 μmol/L). The solution (each 60 μL) was placed into the wells of the plate for the determination of kinase reaction, followed by enzymatic reaction at room temperature for sixty minutes. After reacting, the reaction was stopped by the addition of 50 μL of a 25 mmol/L aqueous solution of ethylenediaminetetraacetic acid. […] The relative activity (%) of a well in which the enzyme and tested compound were added was determined by calculation with the value in a well to which the tested compound was not added being 100% and the value in a well to which the enzyme and the tested compound were not added being 0%. The Flt-3 inhibitory activity (%) of the tested compound was determined by subtracting the relative activity (%) from 100.

Row | inhibition at 10 µM (human Flt-3) [%] | SMILES | also measured
1 | 95.1 | CC(=O)N(C)CC(=O)N1CCN(C(=O)c2ccc(/C=C/c3n[nH]c4ccccc34)cc2)CC1 [Compound 75, (E)-4-(N-acetyl-N-methylaminoacetyl)-1-(4-[2-(1H-indazol-3-yl)vinyl]benzoyl}piperazine] | 
2 | 95 | O=C(c1ccc(/C=C/c2n[nH]c3ccccc23)cc1)N1CCN(C(=O)[C@H]2CCNC2)CC1 [Compound 72, (S)-(E)-1-{4-[2-(1H-indazol-3-yl)vinyl]benzoyl}-4-(pyrrolidin-3-ylcarbonyl)piperazine dihydrochloride] | 
3 | 95.2 | NC1CCN(C(=O)c2ccc(/C=C/c3n[nH]c4ccccc34)cc2)C1 (centres unmarked) [Compound 71, (E)-1-{4-[2-(1H-indazol-3-yl)vinyl]benzoyl}-3-aminopyrrolidine dihydrochloride] | 
4 | 96.3 | CN1CCC(C(=O)N2CCN(C(=O)c3ccc(/C=C/c4n[nH]c5ccccc45)cc3)CC2)CC1 [Compound 77, (E)-4-[(1-methylpiperidin-4-yl)carbonyl]-1-(4-[2-(1H-indazol-3-yl)vinyl]benzoyl)piperazine] | 
5 | 97.4 | CC(C)(C)OC(=O)N1CCN(C(=O)c2ccc(/C=C/c3n[nH]c4ccccc34)cc2)CC1 [Compound 63, (E)-4-{4-[2-(1H-indazol-3-yl)vinyl]benzoyl)piperazine-1-carboxylic acid 1,1-dimethylethylester] | 
6 | 96.4 | O=C(c1ccncc1)N1CCN(C(=O)c2ccc(/C=C/c3n[nH]c4ccccc34)cc2)CC1 [Compound 67, (E)-1-{4-[2-(1H-indazol-3-yl)vinyl]benzoyl}-4-(isonicotinoyl)piperazine] | 
7 | 95.8 | COCC(=O)N1CCN(C(=O)c2ccc(/C=C/c3n[nH]c4ccccc34)cc2)CC1 [Compound 69, (E)-4-methoxyacetyl-1-{4-[2-(1H-indazol-3-yl)vinyl]benzoyl}piperazine] | 
8 | 94.4 | O=CN1CCN(C(=O)c2ccc(/C=C/c3n[nH]c4ccccc34)cc2)CC1 [Compound 65, (E)-4-{4-[2-(1H-indazol-3-yl)vinyl]benzoyl}piperazine-1-carbaldehyde] | 
9 | 93.9 | O=C(c1ccc(/C=C/c2n[nH]c3ccccc23)cc1)N1CCN(C(=O)[C@@H]2CCCN2)CC1 [Compound 76, (S)-(E)-4-[(pyrrolidin-2-yl)carbonyl]-1-{4-[2-(1H-indazol-3-yl)vinyl]benzoyl}piperazine] | 
10 | 95.7 | CCOC(=O)N1CCN(C(=O)c2ccc(/C=C/c3n[nH]c4ccccc34)cc2)CC1 [Compound 66, (E)-1-{4-[2-(1H-indazol-3-yl)vinyl]benzoyl}-4-ethoxycarbonylpiperazine] | 
11 | 91 | O=C(NCCN1CCOCC1)c1ccc(/C=C/c2n[nH]c3ccccc23)cc1 [Compound 61, (E)-N-(2-morpholinoethyl)-4-[2-(1H-indazol-3-yl)vinyl]benzamide] | 
12 | 95.7 | NC1CCN(C(=O)c2ccc(/C=C/c3n[nH]c4ccccc34)cc2)CC1 [Compound 78, (E)-1-{4-[2-(1H-indazol-3-yl)vinyl]benzoyl}-4-aminopiperidine] | 

Second part, the compound before the results:

Row | SMILES | inhibition at 10 µM (human Flt-3) [%] | also measured
13 | CCN(CC)CCOc1ccc(/C=C/c2n[nH]c3ccccc23)cc1 [Compound 6, (E)-3-{2-[4-(2-diethylaminoethoxy)phenyl]vinyl}-1H-indazole hydrochloride] |  | inhibition at 3.16 µM (MV-4-11): 97%; inhibition at 10 µM (K562): 98%; inhibition at 3.16 µM (ML-1): 89%
14 | CN(C)CCOc1cccc(/C=C/c2n[nH]c3ccccc23)c1 [Compound 18, (E)-3-{2-[3-(2-dimethylaminoethoxy)phenyl]vinyl}-1H-indazole hydrochloride] |  | inhibition at 3.16 µM (MV-4-11): 95%; inhibition at 10 µM (K562): 59%; inhibition at 3.16 µM (ML-1): 4.1%
15 | O=C1CN(C(=O)c2ccc(/C=C/c3n[nH]c4ccccc34)cc2)CCN1 [Compound 70, (E)-4-{4-[2-(1H-indazol-3-yl)vinyl]benzoyl}piperadin-2-one] |  | Inhibitory activity on Flt-3 (%) (human Flt-3): 93.7%
16 | CN(C)CCCOc1ccc(/C=C/c2n[nH]c3ccccc23)cc1 [Compound 10, (E)-3-{2-[4-(3-dimethylaminopropoxy)phenyl]vinyl}-1H-indazole hydrochloride] |  | inhibition at 3.16 µM (MV-4-11): 97%; inhibition at 10 µM (K562): 95%; inhibition at 3.16 µM (ML-1): 92%
17 | C(=C\c1n[nH]c2ccccc12)/c1ccc(OCCCN2CCCCC2)cc1 [Compound 9, (E)-3-{2-[4-(3-piperidinopropoxy)phenyl]vinyl}-1H-indazole hydrochloride] |  | inhibition at 3.16 µM (MV-4-11): 97%; inhibition at 10 µM (K562): 97%; inhibition at 3.16 µM (ML-1): 92%
18 | CN(C)CCOc1ccc(/C=C/c2n[nH]c3ccccc23)cc1 [Compound 2, (E)-3-(2-[4-(2-dimethylaminoethoxy)phenyl]vinyl}-1H-indazole hydrochloride] | 97.8 | 
19 | Nc1cc(/C=C/c2n[nH]c3ccccc23)ccc1OCCN1CCOCC1 [Compound 38, (E)-3-{2-[3-amino-4-(2-morpholinoethoxy)phenyl]vinyl}-1H-indazole] | 99.2 | 
20 | CS(=O)(=O)Nc1cc(/C=C/c2n[nH]c3ccccc23)ccc1OCCN1CCOCC1 [Compound 60, (E)-N-{5-[2-(1H-Indazol-3-yl)vinyl]-2-(2-morpholinoethoxy)phenyl}methanesulfonamide] | 90.2 | 
21 | CCOC(=O)COc1ccc(/C=C/c2n[nH]c3ccccc23)cc1 [Compound 3, ethyl (E)-4-[2-(1H-indazol-3-yl)vinyl]phenoxyacetate] |  | inhibition at 3.16 µM (MV-4-11): 37%; inhibition at 10 µM (K562): 14%
22 | CCN(CC)CCNC(=O)c1ccc(/C=C/c2n[nH]c3ccccc23)cc1 [Compound 68, (E)-N-[2-(diethylamino)ethyl]-4-[2-(1H-indazol-3-yl)vinyl]benzamide] | 94.4 | 
23 | C(=C\c1n[nH]c2ccccc12)/c1ccc(OCCN2CCCCC2)cc1 [Compound 8, (E)-3-{2-[4-(2-piperidinoethoxy)phenyl]vinyl}-1H-indazole hydrochloride] |  | inhibition at 3.16 µM (MV-4-11): 97%; inhibition at 10 µM (K562): 94%; inhibition at 3.16 µM (ML-1): 90%
24 | CC(C)(N)C(=O)N1CCN(C(=O)c2ccc(/C=C/c3n[nH]c4ccccc34)cc2)CC1.Cl.Cl [Compound 74, (E)-4-(2-amino-2-methylpropionyl)-1-{4-[2-(1H-indazol-3-yl)vinyl]benzoyl}piperazine dihydrochrolide] |  | Inhibitory activity on Flt-3 (%) (human Flt-3): 97.0%
25 | O=C(c1ccc(/C=C/c2n[nH]c3ccccc23)cc1)N1CCNCC1 [Compound 64, (E)-1-{4-[2-(1H-indazol-3-yl)vinyl]benzoyl}piperazine] | 94.2 | 
26 | CCN(CC)C(=O)c1ccc(/C=C/c2n[nH]c3ccccc23)cc1 [Compound 62, (E)-N,N-Diethyl-4-[2-(1H-indazol-3-yl)vinyl]benzamide hydrochloride] | 93.7 | 
27 | COc1cc(/C=C/c2n[nH]c3ccccc23)ccc1OCCN1CCOCC1 [Compound 30, (E)-3-{2-[3-methoxy-4-(2-morpholinoethoxy)phenyl]vinyl}-1H-indazole hydrochloride] | 98.1 | 
